For orientation: IC50 means the concentration that gives 50% inhibition.

Structures are written as SMILES.

A short description of this assay: Inhibitory activity against hydrolysis of Gly-Pro-pNa by Dipeptidyl peptidase IV purified from CD26-negative C8166 cells.

The compound `CCCCCCCC[S+](CCCCCCCC)Cc1ccc2cc1C(=O)NCC(=O)NCC(=O)NCCCC[C@H](N)C(=O)N1CCC[C@H]1C(=O)N2` [Cyclo(Lys(alphaH2+)-Pro-Aba-[CH2SOct2-]-Gly2-), 2CF3COO-] registered an IC50 of 630 nM.

These data come from BindingDB's records for doi:10.1021/jm970640l (University of Versailles Saint-Quentin-en-Yvelines, 1998).
